# Marks after values point to notes of the source that are not given here.
# Assays:
# [1] = test system: patients with moderate to severe plaque psoriasis; test: Esteem 2: randomized, double-blind, placebo controlled, multicenter clinical study in psoriasis; assay type: in vivo, human; conditions: for PASI-75, % (LOCF): primary endpoint; for sPGA score 0 (clear) or 1 (almost clear), % (LOCF): with ≥2-point reduction from baseline; for PPPGA score 0 (clear) or 1 (almost clear), %: patients with palmoplantar psoriasis (PPPGA ≥3), n = 26; for ScPGA score 0 (clear) or 1 (minimal), %: patients with scalp psoriasis (ScPGA ≥3), n = 176
# Procedure: In the study 413 patients were enrolled; patients ranged in age from 18 to 83 years, with an overall median age of 46 years. The mean baseline body surface area (BSA) involvement was 25.19% (median 21.0%), the mean baseline PASI score was 19.07 (median 16.80), and the proportion of patients with sPGA score of 3 (moderate) and 4 (severe) at Baseline were 70.0% and 29.8%, respectively. Patients were randomized to Apremilast in an amount of 30 mg twice per day (after the initial dose titration schedule) or placebo for the first 16 weeks, and from Weeks 16 to 32, all patients received Apremilast in an amount of 30 mg twice per day.
# Target Dose: 30 mg (po) BID
# Day 1: 10 mg in the morning
# Day 2: 10 mg morning; 10 mg after noon
# Day 3: 10 mg morning; 20 mg after noon
# Day 4: 20 mg morning; 20 mg after noon
# Day 5: 20 mg morning; 30 mg after noon
# During the Randomized Treatment Withdrawal Phase (Weeks 32-52), patients originally randomized to Apremilast who achieved at least a 50% reduction in PASI score (PASI-50) were re-randomized to either placebo or Apremilast 30 mg BID. Patients who were re-randomized to placebo and who lost 50% of the improvement in PASI at Week 32 compared to Baseline, were retreated with Apremilast 30 mg BID.
# [2] = test system: patients with moderate to severe atopic dermatitis; test: Open-label pilot study of 2 doses of apremilast in adult atopic dermatitis; assay type: in vivo, human; conditions: for DLQI scores, average reduction / EASI scores, average reduction / patients who reduced their IGA score by 1 U / average reduction in itch using a VAS / DLQI score, mean after treatment / EASI score, mean after treatment / VAS for pruritus, mean after treatment: 3 months; for average reduction in itch using a VAS: intent-to-treat; for EASI after treatment: from 21.1
# [3] = 61 patients with ≥PASI-50 at Week 32 re-randomized to apremilast
# [4] = Week 16, 30 mg BID, n = 274, LOCF
# [5] = Week 16, 30 mg BID, n = 274, LOCF, listed as Apremilast
# [6] = Week 16, 30 mg BID, n = 274, listed as Apremilast
# [7] = Week 16, 30 mg BID, patients with baseline DLQI >5, n = 226
# [8] = Week 16, 30 mg BID, patients with nail psoriasis (score ≥1), n = 175
# [9] = Week 16, 30 mg BID, listed as Apremilast
# [10] = initially randomized to apremilast, did not achieve PASI-50 at Week 32
# [11] = patients treated with apremilast from baseline
# [12] = placebo at baseline, switched to apremilast at Week 16, achieved PASI-50 at Week 32
# [13] = placebo at baseline, switched to apremilast at Week 16, did not achieve PASI-50 at Week 32
# [14] = cohort 2, 30 mg twice a day, 6 months
smiles,measurement,setting,value
"CCOc1cc([C@@H](CS(C)(=O)=O)N2C(=O)c3cccc(NC(C)=O)c3C2=O)ccc1OC [apremilast, (+)-2-[1-(3-ethoxy-4-methoxyphenyl)-2-methylsulfonylethyl]-4-acetylaminoisoindoline-1,3-dione]","Non-overlapping confidence intervals vs placebo in improvement in pruritus and skin discomfort/pain from baseline, first detected",[1]; 30 mg BID,as early as Week 2
same,"Non-overlapping confidence intervals vs placebo in mean percentage improvement in PASI from baseline, first detected","[1]; 30 mg BID, first post-baseline visit",as early as Week 2
same,regained PASI-50 response after re-treatment,[1]; 32 patients re-randomized to placebo who lost 50% of PASI improvement and re-initiated apremilast before Week 52,65.6%
same,PASI-75 at Week 52,[1]; 36 patients re-randomized to apremilast who were also PASI-75 responders at Week 32,66.7%
same,PASI-50 response at Week 52,[1]; [3],80.3%
same,mean percent change in PASI at Week 52,[1]; [3],−74.4%
same,≥70% improvement from baseline in PASI score at Week 52,[1]; [3],60.7%
same,decrease in pruritus severity from baseline,"[1]; Week 16, 30 mg BID",~50%
same,decrease in skin discomfort/pain severity from baseline,"[1]; Week 16, 30 mg BID",~50%
same,"PASI-50, % (LOCF)","[1]; Week 16, 30 mg BID, n = 274",55.5%
same,"PASI-50, % (NRI)","[1]; Week 16, 30 mg BID, n = 274",53.6* %
same,"PASI-75, % (NRI)","[1]; Week 16, 30 mg BID, n = 274",28.1* %
same,"PASI-90, % (LOCF)","[1]; Week 16, 30 mg BID, n = 274",8.8%
same,"sPGA score 0 (clear) or 1 (almost clear), % (NRI)","[1]; Week 16, 30 mg BID, n = 274",19.7* %
same,Mean % change in PASI score,[1]; [4],−50.9%
same,Mean change in DLQI score,[1]; [4],−6.7*
same,"Mean change in pruritus VAS score, mm",[1]; [4],−33.5 mm
same,"Mean change in skin discomfort/pain VAS score, mm",[1]; [4],−28.5 mm
same,Median % change in PASI score,[1]; [4],−56.0%
same,Mean % change in PASI score,[1]; [5],−50.9* %
same,"Mean change in pruritus VAS score, mm",[1]; [5],−33.5* mm
same,"Mean change in skin discomfort/pain VAS score, mm",[1]; [5],−28.5* mm
same,"PASI-50, % (LOCF)",[1]; [6],55.5* %
same,"PASI-90, % (LOCF)",[1]; [6],8.8^‡ %
same,"PASI-75, % (LOCF)","[1]; Week 16, 30 mg BID, n = 274",28.8%
same,"PASI-75, % (LOCF)",[1]; [6],28.8* %
same,"sPGA score 0 (clear) or 1 (almost clear), % (LOCF)","[1]; Week 16, 30 mg BID, n = 274",20.4%
same,"sPGA score 0 (clear) or 1 (almost clear), % (LOCF)",[1]; [6],20.4* %
same,"DLQI (decrease of ≥5 points) + PASI-50 response, %",[1]; [7],49.1* %
same,"DLQI response (decrease of ≥5 points), %",[1]; [7],70.8* %
same,Mean % change in NAPSI score,[1]; [8],−29.0** %
same,"NAPSI-50, %",[1]; [8],44.6%
same,"NAPSI-50, %","[1]; Week 16, 30 mg BID, patients with nail psoriasis (score ≥1), n = 175, listed as Apremilast",44.6* %
same,"PPPGA score 0 (clear) or 1 (almost clear), %","[1]; Week 16, 30 mg BID",65.4%
same,"PPPGA score 0 (clear) or 1 (almost clear), %",[1]; [9],65.4^|| %
same,"ScPGA score 0 (clear) or 1 (minimal), %","[1]; Week 16, 30 mg BID",40.9%
same,"ScPGA score 0 (clear) or 1 (minimal), %",[1]; [9],40.9* %
same,Response rates in placebo patients who switched to apremilast at Week 16 vs apremilast in both treatment periods,[1]; Weeks 16 to 32,response rates similar
same,Severity of the majority of adverse events,[1]; did not lead to discontinuation,mild to moderate
same,5 most common adverse events (AEs),"[1]; human, in vivo","diarrhea, nausea, upper respiratory tract infection, tension headache, and headache"
same,Discontinuation due to upper respiratory tract infection,"[1]; human, in vivo",No patient discontinued
same,Discontinuations due to AEs: diarrhea,"[1]; human, in vivo",0.8%
same,Discontinuations due to AEs: headache,"[1]; human, in vivo",0.4%
same,Discontinuations due to AEs: nausea,"[1]; human, in vivo",1.2%
same,Discontinuations due to AEs: tension headache,"[1]; human, in vivo",0.2%
same,PASI-50 at Week 52,[1]; [10],32.8%
same,mean percent change from baseline in PASI score at Week 52,[1]; [10],−45.7%
same,median time to first loss of 50% of the PASI improvement obtained at Week 32,[1]; patients re-randomized to apremilast,21.9 weeks
same,"PASI, sPGA, and DLQI responses from Weeks 16 to 32",[1]; [11],generally maintained
same,"PASI-50, PASI-75, and PASI-90 responses from Weeks 16 to 32",[1]; [11],generally maintained
same,PASI-50 at Week 52,[1]; [12],83.1%
same,mean percent change in PASI from baseline at Week 52,[1]; [12],−71.8%
same,PASI-50 at Week 52,[1]; [13],16.0%
same,mean percent change from baseline in PASI at Week 52,[1]; [13],−24.7%
same,signs and symptoms of psoriasis,[1]; study conclusion,significantly improved
same,DLQI after treatment,"[2]; both cohorts combined, post hoc intent-to-treat, mean baseline 11.6",4.7
same,EASI score after treatment,"[2]; both cohorts combined, post hoc intent-to-treat, mean baseline 24.8",16.2
same,VAS after treatment,"[2]; both cohorts combined, post hoc intent-to-treat, mean baseline 52.0 mm",31.7 mm
same,time to statistically significant decline in pruritus,"[2]; cohort 1, 20 mg twice a day",≤ 2 weeks
same,"DLQI scores, average reduction","[2]; cohort 1, 20 mg twice a day",55%
same,"EASI scores, average reduction","[2]; cohort 1, 20 mg twice a day",19%
same,patients who reduced their IGA score by 1 U,"[2]; cohort 1, 20 mg twice a day, 6 patients",1
same,average reduction in itch using a VAS,"[2]; cohort 1, 20 mg twice a day",49%
same,"DLQI score, mean after treatment","[2]; cohort 1, 20 mg twice a day, mean baseline 14.2",6.2
same,"EASI score, mean after treatment","[2]; cohort 1, 20 mg twice a day, mean baseline 30.9",22.1
same,"VAS for pruritus, mean after treatment","[2]; cohort 1, 20 mg twice a day, mean baseline 62.3 mm",30.5 mm
same,time to statistically significant clinical improvement in atopic dermatitis,"[2]; cohort 2, 30 mg twice a day",≤ 2 weeks
same,patients who achieved an IGA score of mild,"[2]; cohort 2, 30 mg twice a day, 3-month time point",One patient
same,"DLQI scores, average reduction","[2]; cohort 2, 30 mg twice a day",58%
same,"EASI scores, average reduction","[2]; cohort 2, 30 mg twice a day",39%
same,patients who reduced their IGA score by 1 U,"[2]; cohort 2, 30 mg twice a day, 10 patients",Two of 10 patients
same,average reduction in itch using a VAS,"[2]; cohort 2, 30 mg twice a day",25%
same,"VAS for pruritus, mean after treatment","[2]; cohort 2, 30 mg twice a day, baseline 45.8 mm",32.4 mm
same,"DLQI score, mean after treatment","[2]; cohort 2, 30 mg twice a day, mean baseline 10.1",3.8
same,"EASI score, mean after treatment","[2]; cohort 2, 30 mg twice a day, mean baseline 21.4",13.2
same,"patients improved at least 1 U in the IGA, %",[2]; [14],50%
same,"patients improved at least 1 U in the IGA, number",[2]; [14],Five patients
same,patients who achieved an IGA of almost clear,[2]; [14],1
same,patients who reached an IGA of mild,[2]; [14],Four of these 5
same,EASI after treatment,"[2]; cohort 2, 30 mg twice a day, 6 months, intent to treat",11.6
same,VAS after treatment,"[2]; cohort 2, 30 mg twice a day, 6 months, intent to treat, from 45.8 mm",25.3 mm
same,DLQI after treatment,"[2]; cohort 2, 30 mg twice a day, 6 months, per protocol, from 10.1",4.0
same,EASI after treatment,"[2]; cohort 2, 30 mg twice a day, 6 months, per protocol",10.4
same,VAS after treatment,"[2]; cohort 2, 30 mg twice a day, 6 months, per protocol, from 45.8",22.7
same,patients who reached an IGA score of clear or almost clear,"[2]; either cohort (20 mg or 30 mg twice a day), 3-month time point",No patient

# Reference: patent US10092541B2, “Methods for the treatment of diseases ameliorated by PDE4 inhibition using dosage titration of apremilast” (CELGENE CORPORATION, priority 2014, dated 2018)
